Test results reported in publication PMC6957519, “NLRP6 self-assembles into a linear molecular platform following LPS binding and ATP stimulation” (Scientific Reports, 2020).
Where “and” joins values, the source holds several entries; their conditions need not be identical. Identical values can stand only once.

T1: NLRP6 (Homo sapiens, UniProt P59044)
T1 construct: full-length 1-892; N-terminal His-MBP tag removed by HRV3C; E. coli BL21(DE3); monomer, dimerises with LPS
T1 sequence (P59044 1-892): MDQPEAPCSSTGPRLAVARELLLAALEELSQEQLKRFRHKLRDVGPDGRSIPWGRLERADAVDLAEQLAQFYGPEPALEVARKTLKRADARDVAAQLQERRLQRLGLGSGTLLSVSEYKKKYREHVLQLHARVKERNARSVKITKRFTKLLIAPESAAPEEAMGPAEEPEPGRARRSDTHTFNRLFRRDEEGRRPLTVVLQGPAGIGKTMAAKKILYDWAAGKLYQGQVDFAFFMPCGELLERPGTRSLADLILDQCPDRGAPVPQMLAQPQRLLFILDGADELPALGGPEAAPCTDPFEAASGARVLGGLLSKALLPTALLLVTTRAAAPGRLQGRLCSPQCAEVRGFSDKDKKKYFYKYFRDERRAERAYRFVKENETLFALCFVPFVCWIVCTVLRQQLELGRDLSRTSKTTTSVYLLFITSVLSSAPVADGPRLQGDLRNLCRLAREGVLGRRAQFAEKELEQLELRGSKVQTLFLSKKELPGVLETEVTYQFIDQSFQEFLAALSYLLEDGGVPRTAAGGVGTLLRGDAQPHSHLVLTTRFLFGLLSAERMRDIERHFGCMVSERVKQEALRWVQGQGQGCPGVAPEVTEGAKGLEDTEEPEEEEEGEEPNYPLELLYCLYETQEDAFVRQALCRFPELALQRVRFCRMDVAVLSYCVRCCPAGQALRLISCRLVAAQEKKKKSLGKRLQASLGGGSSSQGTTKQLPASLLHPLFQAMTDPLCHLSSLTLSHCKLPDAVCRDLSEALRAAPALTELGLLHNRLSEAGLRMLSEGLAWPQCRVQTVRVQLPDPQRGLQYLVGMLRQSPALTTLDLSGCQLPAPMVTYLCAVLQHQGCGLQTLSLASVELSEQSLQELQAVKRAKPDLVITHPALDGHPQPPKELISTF


Experiments:
[1] = molecular target: T1, NLRP6; assay: nucleotide-induced oligomerization; format: binding; details: with LPS (LPS-bound dimer); putative NOD domain site
[2] = molecular target: T1, NLRP6; assay: gel filtration and EM, nucleotide-induced oligomerization; format: binding; details: with LPS (LPS-bound dimer); no shift of the monomer with ATP alone; putative NOD domain site
[3] = molecular target: the molecule itself; assay: SEC; NLRP6 monomer incubated with LPS (Ra, 10 uM or 20 uM; NLRP6 to component 1:20), Superdex 200 10/300; similar peak shifts with LPS Rc, Rd, Re, Lipid A, FITC-LPS and Pam3CSK4
[4] = molecular target: the molecule itself; assay: negative-stain electron microscopy; NLRP6 with LPS and ATP increased to 2 mM
[5] = molecular target: the molecule itself; assay: negative-stain electron microscopy with 3D reconstruction; NLRP6 with LPS and 1 mM ATP (peak 3 of the gel filtration); particles classed by the number of shrinked links; tetramer map from 8783 particles

Molecule | nucleotide-induced oligomerization [1] | other results
Cc1cn([C@H]2C[C@H](O)[C@@H](COP(=O)(O)OP(=O)(O)OP(=O)(O)O)O2)c(=O)[nH]c1=O [TTP] | demonstrated by ATP, GTP, CTP, TTP, and deoxy-ATP (dATP) treatment | –
Nc1nc2c(ncn2[C@@H]2O[C@H](COP(=O)(O)OP(=O)(O)OP(=O)(O)O)[C@@H](O)[C@H]2O)c(=O)[nH]1 [GTP] | demonstrated by ATP, GTP, CTP, TTP, and deoxy-ATP (dATP) treatment | –
Nc1ncnc2c1ncn2[C@H]1C[C@H](O)[C@@H](COP(=O)(O)OP(=O)(O)OP(=O)(O)O)O1 [deoxy-ATP] | demonstrated by ATP, GTP, CTP, TTP, and deoxy-ATP (dATP) treatment | –
Nc1ncnc2c1ncn2[C@@H]1O[C@H](COP(=O)(O)OP(=O)(O)OP(=O)(O)O)[C@@H](O)[C@H]1O [ATP] | – | gel filtration and EM, nucleotide-induced oligomerization [2]: in the presence of both ATP and LPS, NLRP6 showed additional peak shifts
Nc1ccn([C@@H]2O[C@H](COP(=O)(O)OP(=O)(O)OP(=O)(O)O)[C@@H](O)[C@H]2O)c(=O)n1 [CTP] | demonstrated by ATP, GTP, CTP, TTP, and deoxy-ATP (dATP) treatment | –
Recombinant full-length human NLRP6 (1–892) (natural protein, UniProt P59044 1-892, looked up, NLRP6, human, full length, residues 1-892; Number of copies depends on the condition: monomer in the arginine buffer, dimer with LPS, tetramer, hexamer and longer linear oligomers with LPS and ATP; also called NLRP6 monomer; NLRP6 dimer; not shown: His-tag, N-terminal, cleaved; MBP, N-terminal, cleaved) MDQPEAPCSSTGPRLAVARELLLAALEELSQEQLKRFRHKLRDVGPDGRSIPWGRLERADAVDLAEQLAQFYGPEPALEVARKTLKRADARDVAAQLQERRLQRLGLGSGTLLSVSEYKKKYREHVLQLHARVKERNARSVKITKRFTKLLIAPESAAPEEAMGPAEEPEPGRARRSDTHTFNRLFRRDEEGRRPLTVVLQGPAGIGKTMAAKKILYDWAAGKLYQGQVDFAFFMPCGELLERPGTRSLADLILDQCPDRGAPVPQMLAQPQRLLFILDGADELPALGGPEAAPCTDPFEAASGARVLGGLLSKALLPTALLLVTTRAAAPGRLQGRLCSPQCAEVRGFSDKDKKKYFYKYFRDERRAERAYRFVKENETLFALCFVPFVCWIVCTVLRQQLELGRDLSRTSKTTTSVYLLFITSVLSSAPVADGPRLQGDLRNLCRLAREGVLGRRAQFAEKELEQLELRGSKVQTLFLSKKELPGVLETEVTYQFIDQSFQEFLAALSYLLEDGGVPRTAAGGVGTLLRGDAQPHSHLVLTTRFLFGLLSAERMRDIERHFGCMVSERVKQEALRWVQGQGQGCPGVAPEVTEGAKGLEDTEEPEEEEEGEEPNYPLELLYCLYETQEDAFVRQALCRFPELALQRVRFCRMDVAVLSYCVRCCPAGQALRLISCRLVAAQEKKKKSLGKRLQASLGGGSSSQGTTKQLPASLLHPLFQAMTDPLCHLSSLTLSHCKLPDAVCRDLSEALRAAPALTELGLLHNRLSEAGLRMLSEGLAWPQCRVQTVRVQLPDPQRGLQYLVGMLRQSPALTTLDLSGCQLPAPMVTYLCAVLQHQGCGLQTLSLASVELSEQSLQELQAVKRAKPDLVITHPALDGHPQPPKELISTF | – | stoichiometry N [3]: 2; stoichiometry N [4]: 16 and 18; stoichiometry N [5]: 4 and 6 and 8 and 10
